Experimental findings from US9497960B2, “Biocide compositions comprising alkoxylation products of isoamyl alcohol derivatives” (COGNIS IP MANAGEMENT GMBH, priority 2010, dated 2016) are described below.

Series [1] can be described thus: Dynamic and quasistatic surface tension, Krüss Bubble Pressure Tensiometer BP2. The settings on record: 0.1% in demineralised water, Kruess BP 2, 20° C.; for Surface tension at 10 Hz: dynamic; for Surface tension at 0.1 Hz: quasistatic. Format: physicochemical. The method, then:
(§1) Definition of “quasistatic”: Static or equilibrium surface tension at an air-liquid interface can be determined by the Du Noüy ring method, the Wilhelmy plate etc. […] To avoid such problems, a dynamic method is used but the frequency is reduced to 0.1 Hz or less, thus close enough to equilibrium conditions. Dynamic surface tension is determined at a frequency of 10 Hz. It was determined at 20° C. with the Krüss Bubble Pressure Tensiometer BP2, available from Krüss GmbH, Borsteler Chaussee 85-99, 22453 Hamburg, Germany. Foam potential was tested with SITA foam tester R-2000, available from SITA Messtechnik GmbH, Gostritzer Str. 61-63, 01217 Dresden, Germany. The results are compiled in Tables 1 and 2

The test system of series [2] is barley powdery mildew (Blumeria graminis f. sp. hordei). Put plainly: Curative greenhouse trial with Opus against barley powdery mildew. Format: in vivo, Blumeria graminis f. sp. hordei on barley. The settings on record: for Infection rate of barley powdery mildew after treatment with fungicides, Opus: curative, Opus 10 g/ha, adjuvant 50 ml/ha, inoculation 2 days prior to application, assessment 14 DAT, barley leaf segments; for Sum of infection rates: sum of Opus (curative) and Amistar (protective) trials. The method, then:
Opus SC125 (BASF) was tested to control barley powdery mildew (BPM) in a curative greenhouse trial, Azoxystrobin SC 250 in a protective trial. In each case, barley was cultivated in a substrate “Frustorder Erde” for three weeks. Each treatment was replicated 14 times. The adjuvant dose rate in each treatment was 50 ml/ha. Inoculation of the leaves with powdery mildew (Blumeria graminis f. sp. hordei) was done 2 days prior to application to test Opus' curative action. From the stem, leaf segments were cut off with a length of 10 cm using the flag leaf (F) and 2nd leaf (F-1). Altogether, the leaves of each were placed on benzimidazol agar i.e. 0.5% Agar with 40 ppm benzimidazol. The concentration of Opus for the leaf application was 10 g/ha. Assessment 14 days after treatment (14 DAT) of the efficacy against powdery mildew was done by counting the mildew pustules per leaf on a length of 7 cm. The assessment of the infection rate was conducted by a trained biologist.

Series [3] has as its system barley powdery mildew (BPM). The series can be described thus: Protective trial with Amistar (Azoxystrobin SC 250) against barley powdery mildew. The series is classed as in vivo, Blumeria graminis f. sp. hordei on barley. The settings on record: 5 g/ha azoxystrobin, adjuvant 50 ml/ha, leaves cut 5 h after application, incubation 10 d. The method, then: Opus SC125 (BASF) was tested to control barley powdery mildew (BPM) in a curative greenhouse trial, Azoxystrobin SC 250 in a protective trial. In each case, barley was cultivated in a substrate “Frustorder Erde” for three weeks. Each treatment was replicated 14 times. The adjuvant dose rate in each treatment was 50 ml/ha. 5 h after application with the equivalent of 5 g/ha azoxystrobin, leaf segments were cut off at a length of 7 cm from the stem. The leaves of the F and F-1 leaf were placed on agar. After the inoculation, the incubation time was 10 d. The assessment of the infection rate was conducted by a trained biologist.

A short description of series [4]: Foam potential / foam height of aqueous adjuvant solutions. Format: physicochemical. The settings on record: 0.1% aqueous solution/dispersion; Cipac MT 47, Cipac water D. The method, then: as §1

With `CC(C)CCC(COCCOCCOCCOCCOCCOCCOCCOCCOCCOCCO)C(C)C` (centres unmarked) [Example 3, Isoamylguerbet + 10EO], in series [1], the “Surface tension at 10 Hz” value is recorded as 46 mN/m and the “Surface tension at 0.1 Hz” value worked out at 36 mN/m. Also, in series [2], the “Infection rate of barley powdery mildew after treatment with fungicides, Opus” value (“Infection rate of barley powdery mildew … Opus” below) was found to be 7% and the “Sum of infection rates” value came to 12%. Further, the “Infection rate of barley powdery mildew after treatment with fungicides, Amistar” value (“Infection rate … Amistar” below) in series [3] is listed as 5%. Moreover, in series [4], the “Foam hight after 1 m” value is recorded as 3 mL and the “Foam hight after 5 m” value turned out to be 2 mL.

Turning to `CC(C)CCC(COCCOCCOCCOCCOCCO)C(C)C` (centres unmarked) [Example 4, Isoamylguerbet + 5EO], in series [1], the “Surface tension at 10 Hz” value is reported as 39 mN/m and the “Surface tension at 0.1 Hz” value was 30 mN/m. In series [2], the “Infection rate of barley powdery mildew … Opus” value came to 12% and the “Sum of infection rates” value is listed as 15%. In addition, the “Infection rate … Amistar” value in series [3] came to 3%. For the same molecule, in series [4], the “Foam hight after 1 m” value is 0 mL and the “Foam hight after 5 m” value is listed as 0 mL.

As to `CC(C)CCC(COCCOCCOCCO)C(C)C` (centres unmarked) [Example 5, Isoamylguerbet + 3EO], in series [1], the “Surface tension at 10 Hz” value was found to be 42 mN/m and the “Surface tension at 0.1 Hz” value was found to be 30 mN/m. In series [2], the “Infection rate of barley powdery mildew … Opus” value turned out to be 20% and the “Sum of infection rates” value is reported as 24%. Further, the “Infection rate … Amistar” value in series [3] was 4%. Also, in series [4], the “Foam hight after 1 m” value is recorded as 0 mL and the “Foam hight after 5 m” value turned out to be 0 mL.

Isoamylguerbet + 3EO + 3PO [Example 2]: in series [1], the “Surface tension at 10 Hz” value is reported as 45 mN/m and the “Surface tension at 0.1 Hz” value is reported as 32 mN/m. For the same molecule, in series [2], the “Infection rate of barley powdery mildew … Opus” value is on record as 8% and the “Sum of infection rates” value turned out to be 8%. Further, the “Infection rate … Amistar” value in series [3] came out at 0%. Also, in series [4], the “Foam hight after 1 m” value is 0 mL and the “Foam hight after 5 m” value amounted to 0 mL.

Consider Isoamylguerbet + 3PO + 3EO [Example 1], for which, in series [1], the “Surface tension at 10 Hz” value amounted to 45 mN/m and the “Surface tension at 0.1 Hz” value is reported as 28 mN/m. Also, in series [2], the “Infection rate of barley powdery mildew … Opus” value is 3% and the “Sum of infection rates” value turned out to be 3%. Moreover, the “Infection rate … Amistar” value in series [3] is 0%. Further, in series [4], the “Foam hight after 1 m” value amounted to 1 mL and the “Foam hight after 5 m” value was determined as 0 mL.
